Data set [1] has as its target T1, brain receptors (calcitonin receptors, crude rat brain membranes) (Rattus norvegicus, UniProt P32214).
T1 sequence (P32214 25-516): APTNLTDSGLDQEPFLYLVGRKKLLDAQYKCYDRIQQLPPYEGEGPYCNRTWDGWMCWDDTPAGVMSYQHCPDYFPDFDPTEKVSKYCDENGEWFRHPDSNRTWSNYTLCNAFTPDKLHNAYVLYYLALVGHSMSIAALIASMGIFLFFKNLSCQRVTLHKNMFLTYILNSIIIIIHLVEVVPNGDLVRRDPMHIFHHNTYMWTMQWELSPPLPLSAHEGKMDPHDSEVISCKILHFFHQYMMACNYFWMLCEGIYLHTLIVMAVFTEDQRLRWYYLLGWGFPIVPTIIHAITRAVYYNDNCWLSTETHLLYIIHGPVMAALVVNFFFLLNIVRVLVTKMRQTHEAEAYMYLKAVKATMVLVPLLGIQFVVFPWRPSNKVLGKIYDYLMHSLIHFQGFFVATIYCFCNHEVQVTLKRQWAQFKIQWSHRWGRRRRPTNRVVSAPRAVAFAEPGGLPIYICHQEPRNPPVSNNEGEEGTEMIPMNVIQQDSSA
To be noted: tubes pretreated with peptide, 30 min at 4° C.
Experimental: Crude rats brain membranes were prepared as described by Nakamuta et al., supra, using 250-300 gm male Sprague-Dawley rats (Charles River Breeding Laboratories). Membranes were either used immediately or stored at -80° C. for no more than three days. Crude rat kidney membranes used for binding studies and adenylate cyclase assays were prepared as described by Schwartz, K. E., R. C. […] The dissected kidney cortices were first homogenized briefly with a Polytron™ (Brinkman Instruments) at low speed ("5") before complete homogenization with a loose-fitting Wheaton Dounce homogenizer (American Scientific Products, MacGaw Park, IL, pestle "B"). […] All preparations of kidney membranes were carried out at 4° C. and the membranes were used immediately for binding studies or adenylate cyclase assays.
The mixture was aspirated after a 1 hr incubation and these tubes were reused for all experiments, one set for brain membrane binding experiments and one set for kidney membrane binding experiments. […] Incubations were continued for 30 min at 4° C. (brain membranes) or 40 min at 21° C. (kidney membranes), and then stopped by centrifuging the tubes at 13,000 rpm for 5 min on a Beckman Microfuge II™ (Beckman Instruments). […] Radioactivity in each tip was quantitated using a Beckman Gamma 5500™ counter (Beckman Instruments).

Data set [2] concerns male Sprague-Dawley rats. The data set is described as follows: In vivo relative hypocalcemic potency in rats (Example 10). Also on record: species or system rat. As for the experimental part: The relative hypocalcemic potency of MCT-II and SCT-I was assessed by giving 3 to 4 week-old male Sprague-Dawley rats (Charles River Breeding Laboratories) subcutaneous injections of hormone in 0.9% saline containing 0.1% BSA. In each experiment, 25 rats were divided into 5 groups of 5 rats each and each group given either saline alone or saline with hormone. Blood samples were obtained by cardiac puncture from the ether-anesthetized rats 1 hr after injection. 200 μl of the blood plasma was diluted in 5 ml of 5% trichloroacetic acid-1000 ppm lithium (Chem-Chek Consulting Inc., South Boundbrook, NJ) and centrifuged before determining the calcium concentration by plasma emission spectrometry (Beckman Spectra Span IV™, Beckman Instruments). Calcium standards were also purchased from Chem-Chek Consulting Inc.

Data set [3] in a line: Surface monolayer studies at the air-water interface. To be noted: for Collapse pressure of the monolayer: air-water interface, 0.01M Tris.HCl pH 7.4, 0.1M NaCl. The data set is classed as physicochemical. As for the experimental part:
For surface monolayer studies, a subphase of 0.01M Tris.HCl, pH 7.4 with 0.1M NaCl was prepared with glass-distilled water. Surfactant contaminants were removed by bubbling air through the solution for 10 min, then aspirating the surface of the buffer. Insoluble monolayers were spread from a 2.8×10^-4 M solution of MCT-I in 0.1 mM HCl. The surface pressure π(dyn/cm) of the MCT-I monomolecular layer was measured as a function of area, A (cm^2), using a Lauda™ film balance (Brinkman Instruments, Norwalk, CT). At the air-water interface, MCT-I and SCT-I form insoluble monolayers when spread from concentrated solutions in 0.01M HCl. The force-area (π-A) curves between 5 and 12 dyn/cm are described by the equation π[A-A.infin. (1-κπ)]=nRT where κ is a constant reflecting the compressibility of the monolayer and A.infin. is the limiting molecular area extrapolated to zero surface pressure. The parameters calculated for the two peptides were very similar, κ=0.016 cm/dyn for MCT-I and 0.02 cm/dyn for SCT-I, while A.infin. =362 Å^2 for MCT-I and A.infin. =322 Å^2 for SCT I. However, the collapse pressure of 24 dyn/cm found for the monolayer of MCT-I was much higher than the value of 14 dyn/cm observed for SCT-I.
Surface monolayer studies were conducted as in Example 4. MCT-II forms stable monolayers at the air-water interface when spread from concentrated solutions in 0.01M HCl. The force-area curve (π-A) between 0 dyn/cm and 21 dyn/cm can be described by the equation π(A-A.infin. (1-κπ))=nRT where A.infin. is the limiting molecular area extrapolated to zero surface pressure and κ is a constant reflecting the compressibility of the monolayer. The parameters calculated using the entire π-A curve indicate that MCT-II forms a compact, relatively rigid structure at the air-water interface. A.infin. was 362±10 Å^2 compared with 434±7 Å^2 for MCT-I and 559±18 Å^2 for SCT-I. Monolayers of SCT-I, MCT-I, and MCT-II were successively less compressible with κ having values of 0.03 cm/dyn for SCT-I, 0.02 cm/dyn for MCT-I, and 0.01 cm/dyn for MCT-II. Collapse of the monolayer occurred at 22 dyn/cm which was slightly lower than the 24 dyn/cm observed for MCT-I and higher than for the SCT-I monolayer which collapses at 12 dyn/cm.

Data set [4] has as its target T2, calcitonin receptors (brain particulate fraction) (Rattus norvegicus, UniProt P32214).
T2 sequence (P32214 25-516): T1 sequence (P32214 25-516)
Text: Fractions from the single symmetrical peak which was eluted with this buffer were combined, adjusted to pH 7.5, and frozen in small aliquots until needed. The specific activity of the radioiodinated peptide was ~160 μCi/μg. […] Each point represents the mean of three triplicate determinations.

Data set [5] deals with male Sprague-Dawley rats. The data set is described as follows: In vivo hypocalcemic rat bioassay (Example 6).
Setting [6] is: calculated using the entire π-A curve (Example 7).
The mark [7] stands for this setting: π-A curve between 5 and 12 dyn/cm (Example 4).

“Also recorded” adds a separate entry of the source. Bridge positions count the residues as written; N and C are the ends. Peptide text beside a SMILES is read from it.

In the case of `CC(C)C[C@H](NC(=O)[C@H](CCCCN)NC(=O)[C@H](CCC(N)=O)NC(=O)[C@H](CC(C)C)NC(=O)[C@H](CCC(N)=O)NC(=O)[C@H](CCC(N)=O)NC(=O)[C@H](CC(C)C)NC(=O)[C@H](CC(C)C)NC(=O)[C@@H]1CSSC[C@H](N)C(=O)N[C@@H](CO)C(=O)N[C@@H](CC(N)=O)C(=O)N[C@@H](CC(C)C)C(=O)N[C@@H](CO)C(=O)N[C@@H]([C@@H](C)O)C(=O)N1)C(=O)N[C@@H](CC(C)C)C(=O)N[C@@H](CCC(N)=O)C(=O)N[C@@H](CCCCN)C(=O)N[C@@H](CC(C)C)C(=O)N[C@@H](CCCCN)C(=O)N[C@@H](CCC(N)=O)C(=O)N[C@@H](Cc1ccc(O)cc1)C(=O)N1CCC[C@H]1C(=O)N[C@@H](CCCNC(=N)N)C(=O)N[C@H](C(=O)N[C@@H](CC(N)=O)C(=O)N[C@H](C(=O)NCC(=O)N[C@@H](CO)C(=O)NCC(=O)N[C@H](C(=O)N1CCC[C@H]1C(N)=O)[C@@H](C)O)[C@@H](C)O)[C@@H](C)O` [MCT-II] (H-CSNLSTCLLQQLQKLLQKLKQYPRTNTGSGTP-NH2; disulfide 1-7; N-terminus assumed), the “IC50 for brain receptors, calculated from theoretical curves fitted to the data” value in data set [1] is reported as 0.6 nM. For the same compound, the “Activity relative to MCT-I” value in the data set on male Sprague-Dawley rats [2] (in all assays used to compare them) is 10 times. In addition, in the data set with male Sprague-Dawley rats [2] (subcutaneous, 0.1 to 100 ng/100 g body weight, 1 hr after injection, b99: all assays used to compare them), the “Hypocalcemic potency relative to SCT-I” value is “indistinguishable from that of our preparation of SCT-I; also recorded: as active as SCT-I”. Also, the “Collapse pressure of the monolayer” value in data set [3] is 22 dyn/cm. In addition, in data set [3] (setting [6]), the “A∞, limiting molecular area extrapolated to zero surface pressure” value (“A∞, limiting molecular area extrapolated” below) is on record as 362±10 Å^2 and the “κ, compressibility constant of the monolayer” value (from here on “κ, compressibility constant”) is 0.01 cm/dyn.

Consider `CC(C)C[C@@H]1NC(=O)[C@H](CC(N)=O)NC(=O)CNC(=O)[C@@H](N)CSSC[C@@H](C(=O)N[C@@H](CC(C)C)C(=O)N[C@@H](CC(C)C)C(=O)N[C@@H](CCC(N)=O)C(=O)N[C@@H](CCC(N)=O)C(=O)N[C@@H](Cc2c[nH]c3ccccc23)C(=O)N[C@@H](CCC(N)=O)C(=O)N[C@@H](CCCCN)C(=O)N[C@@H](CC(C)C)C(=O)N[C@@H](CC(C)C)C(=O)N[C@@H](CCC(N)=O)C(=O)N[C@@H](CCCCN)C(=O)N[C@@H](CC(C)C)C(=O)N[C@@H](CCCCN)C(=O)N[C@@H](CCC(N)=O)C(=O)N[C@@H](CC(C)C)C(=O)N2CCC[C@H]2C(=O)N[C@@H](CCCNC(=N)N)C(=O)N[C@H](C(=O)N[C@@H](CC(N)=O)C(=O)N[C@H](C(=O)NCC(=O)N[C@@H](CO)C(=O)NCC(=O)N[C@H](C(=O)N2CCC[C@H]2C(N)=O)[C@@H](C)O)[C@@H](C)O)[C@@H](C)O)NC(=O)[C@H]([C@@H](C)O)NC(=O)[C@H](CO)NC1=O` [MCT-I] (H-CGNLSTCLLQQWQKLLQKLKQLPRTNTGSGTP-NH2; disulfide 1-7), for which the IC50 in data set [4] is 17 nM. Further, the “Activity relative to PCT” value with male Sprague-Dawley rats [5] (hypocalcemic response in rats, b98 covers in vitro and in vivo activity) is recorded as “approximately as active as PCT; also recorded: equivalent to that of PCT”. In the data set on male Sprague-Dawley rats [5] (subcutaneous, plasma calcium 1 hour after injection), the “In vivo potency relative to SCT-I (fold less potent)” value is “about 10 fold”. In addition, in data set [3], the “Collapse pressure of the monolayer” value stood at 24 dyn/cm. For the same compound, in data set [3] (setting [6]), the “A∞, limiting molecular area extrapolated” value was 434±7 Å^2 and the “κ, compressibility constant” value is reported as 0.02 cm/dyn. In addition, in data set [3] (setting [7]), the “A∞, limiting molecular area extrapolated” value is listed as 362 Å^2 and the “κ, compressibility constant” value worked out at 0.016 cm/dyn.

One may read the IC50 as the midpoint of a concentration-inhibition curve.

Source of the values: patent US4663309A, “Novel peptide hormones with calcitonin-like activity” (University Patents, Inc., priority 1985, dated 1987).
